Results as given in patent publication EP2832223A1, “HERBICIDAL COMPOSITION” (Ishihara Sangyo Kaisha, Ltd., priority 2012, dated 2013).

How the values were obtained:
Format in all cases: in vivo
[1] = tested on: common cocklebur (Xanthium strumarium L.); test: Test Example 12: pot test, foliar treatment, visual growth inhibition; conditions: 250 g/ha, foliar treatment at 4.2 to 4.3-leaf stage, 28th day after treatment, read-out: Growth inhibition rate (%) of common cocklebur Measured value
Method: Upland field soil was put into a 1/1,000,000 ha pot, and seeds of common cocklebur (Xanthium strumarium L.) were sown. When the common cocklebur reached 4.2 to 4.3-leaf stage, predetermined amounts of ONEHOPE NYUZAI (tradename), Click (tradename) and water dispersible granules containing flufenacet as an active ingredient (tradename: Cadou, manufactured by Bayer CropScience) were diluted with water (in an amount corresponding to 1,000 L/ha) and applied for foliar treatment by a small sprayer.
(§1) On the 28th day after treatment, the state of growth of the common cocklebur was visually observed to determine the growth inhibition rate (%). The growth inhibition rate (%) (measured value) and the growth inhibition rate (%) calculated in the same manner as in the above Test Example 1 are shown in Table 12.

[2] = tested on: guinea grass (Panicum maximum Jacq.); test: Test Example 15: pot test, soil and foliar treatment, visual growth inhibition; conditions: Megathyrsus maximus, 250 g/ha, 31st day after treatment, read-out: Growth inhibition rate (%) of guinea grass Measured value
Method: (§2) Upland field soil was put into a 1/1,000,000 ha pot, and seeds of guinea grass (Panicum maximum Jacq.) were sown. When the guinea grass reached 5.2 to 6.0-leaf stage, seeds of guinea grass were further sown in the same pot assuming conditions such that weeds would later grow. On the next day, predetermined amounts of ONEHOPE NYUZAI (tradename), Click (tradename), Spectrum (tradename) and Cadou (tradename) were diluted with water in an amount corresponding to 300 L/ha and applied for soil treatment and for foliar treatment by a small sprayer.
as §1, with “31 st” for “28th”, “guinea grass” for “common cocklebur”, “15.” for “12.”

[3] = tested on: wild oat (Avena fatua L.); test: Test Example 2: pot test, soil treatment, visual growth inhibition; conditions: 50 g/ha, 28th day after treatment, read-out: Growth inhibition rate (%) of wild oat Measured value
Method: (§3) Upland field soil was put into a 1/500,000 ha pot, and seeds of wild oat (Avena fatua L.) were sown. On the next day, predetermined amounts of ONEHOPE NYUZAI (tradename), Click (tradename) and SC formulation containing mesotrione as an active ingredient (tradename: Callisto, manufactured by Syngenta) were diluted with water (in an amount corresponding to 1,000 L/ha) and applied for soil treatment by a small sprayer.
as §1, with “wild oat” for “common cocklebur”, “2.” for “12.”

[4] = tested on: prickly sida (Sida spinosa L.); test: Test Example 10: pot test, soil treatment, visual growth inhibition; conditions: read-out: Growth inhibition rate (%) of prickly sida Measured value
Method: (§4) Upland field soil was put into a 1/300,000 ha pot, and seeds of prickly sida (Sida spinosa L.) were sown. On the next day, predetermined amounts of ONEHOPE NYUZAI (tradename), Click (tradename), Spectrum (tradename), Callisto (tradename) and Clio (tradename) were diluted with water (in an amount corresponding to 1,000 L/ha) and applied for soil treatment by a small sprayer.
as §1, with “prickly sida” for “common cocklebur”, “10.” for “12.”

[5] = tested on: velvetleaf (Abutilon theophrasti Medic.); test: Test Example 14: pot test, soil and foliar treatment, visual growth inhibition; conditions: read-out: Growth inhibition rate (%) of velvetleaf Measured value
Excerpt: as §2, with “velvetleaf (Abutilon theophrasti Medic.)” for “guinea grass (Panicum maximum Jacq.)”, “velvetleaf” for “guinea grass”, “4.0” for “5.2”, “4.3-leaf” for “6.0-leaf”, “Callisto (tradename), Mikado (tradename), a wettable powder containing bicyclopyrone as an active ingredient” for “Spectrum (tradename)”, “Clio” for “Cadou”
as §1, with “31 st” for “28th”, “velvetleaf” for “common cocklebur”, “14.” for “12.”

[6] = tested on: velvetleaf (Abutilon theophrasti Medic.); test: Test Example 16: pot test, soil and foliar treatment, visual growth inhibition; conditions: read-out: Growth inhibition rate (%) of velvetleaf Measured value
Excerpt: Upland field soil was put into a 1/1,000,000 ha pot, and seeds of velvetleaf (Abutilon theophrasti Medic.) were sown. When the velvetleaf reached 4.0 to 4.3-leaf stage, seeds of velvetleaf were further sown in the same pot assuming conditions such that weeds would later grow. Three days later, predetermined amounts of ONEHOPE NYUZAI (tradename), Click (tradename), Callisto (tradename), Mikado (tradename), a wettable powder containing bicyclopyrone as an active ingredient and Clio (tradename) were diluted with water in an amount corresponding to 300 L/ha and applied for soil treatment and for foliar treatment by a small sprayer.
as §1, with “29th” for “28th”, “velvetleaf” for “common cocklebur”, “16.” for “12.”

[7] = tested on: green foxtail (Setaria viridis (L.) P.Beauv.); test: Test Example 3: pot test, soil treatment, visual growth inhibition; conditions: soil, read-out: Growth inhibition rate (%) of green foxtail Measured value
Method: as §3, with “1/1,000,000” for “1/500,000”, “green foxtail (Setaria viridis (L.) P.Beauv.)” for “wild oat (Avena fatua L.)”, “sulcotrione” for “mesotrione”, “Mikado,” for “Callisto,”, “Bayer CropScience)” for “Syngenta)”
as §1, with “27th” for “28th”, “green foxtail” for “common cocklebur”, “3.” for “12.”

[8] = tested on: korean lespedeza (Kummerowia stipulacea (Maxim.) Makino); test: Test Example 6: pot test, soil treatment, visual growth inhibition; conditions: soil, read-out: Growth inhibition rate (%) of korean lespedeza Measured value
Method: (§5) Upland field soil was put into a 1/300,000 ha pot, and seeds of korean lespedeza (Kummerowia stipulacea (Maxim.) Makino) were sown. On the next day, predetermined amounts of ONEHOPE NYUZAI (tradename), Click (tradename), Mikado (tradename) and a wettable powder containing bicyclopyrone prepared in accordance with a conventional formulation method were diluted with water (in an amount corresponding to 1,000 L/ha) and applied for soil treatment by a small sprayer.
as §1, with “14th” for “28th”, “korean lespedeza” for “common cocklebur”, “6.” for “12.”

[9] = tested on: sunn-hemp (Crotalaria juncea L.); test: Test Example 7: pot test, soil treatment, visual growth inhibition; conditions: soil, read-out: Growth inhibition rate (%) of sunn-hemp Measured value
Method: as §5, with “sunn-hemp (Crotalaria juncea L.)” for “korean lespedeza (Kummerowia stipulacea (Maxim.) Makino)”
as §1, with “sunn-hemp” for “common cocklebur”, “7.” for “12.”

[10] = tested on: Japanese millet (Echinochloa utilis Ohwi et Yabuno); test: Test Example 9: pot test, soil treatment, visual growth inhibition; conditions: soil, read-out: Growth inhibition rate (%) of Japanese millet Measured value
Method: as §5, with “Japanese millet (Echinochloa utilis Ohwi et Yabuno)” for “korean lespedeza (Kummerowia stipulacea (Maxim.) Makino)”
as §1, with “Japanese millet” for “common cocklebur”, “9.” for “12.”

[11] = tested on: annual ragweed (Ambrosia artemisiifolia L.); test: Test Example 11: pot test, soil treatment, visual growth inhibition; conditions: soil, read-out: Growth inhibition rate (%) of annual ragweed Measured value
Method: as §5, with “annual ragweed (Ambrosia artemisiifolia L.)” for “korean lespedeza (Kummerowia stipulacea (Maxim.) Makino)”
as §1, with “annual ragweed” for “common cocklebur”, “11.” for “12.”

[12] = tested on: Japanese millet (Echinochloa utilis Ohwi et Yabuno); test: Test Example 5: pot test, soil treatment, visual growth inhibition; conditions: soil, read-out: Growth inhibition rate (%) of Japanese millet Measured value
Method: as §3, with “1/300,000” for “1/500,000”, “Japanese millet (Echinochloa utilis Ohwi et Yabuno)” for “wild oat (Avena fatua L.)”, “topramezone” for “mesotrione”, “Clio,” for “Callisto,”, “BASF)” for “Syngenta)”
as §1, with “Japanese millet” for “common cocklebur”, “5.” for “12.”

[13] = tested on: rostrate sesbania (Sesbania rostrata Bremek. & Oberm.); test: Test Example 8: pot test, soil treatment, visual growth inhibition; conditions: soil, read-out: Growth inhibition rate (%) of rostrate sesbania Measured value
Method: as §4, with “rostrate sesbania (Sesbania rostrata Bremek. & Oberm.)” for “prickly sida (Sida spinosa L.)”, “Spectrum” for “Spectrum (tradename), Callisto”
as §1, with “rostrate sesbania” for “common cocklebur”, “8.” for “12.”

CC(C)N(C(=O)COc1nnc(C(F)(F)F)s1)c1ccc(F)cc1 [Flufenacet, 4'-fluoro-N-isopropyl-2-[5-(trifluoromethyl)-1,3,4-thidiazol-2-yloxy]acetanilide] showed an inhibition at 250 g/ha [1] of 0% and an inhibition at 250 g/ha [2] of 50%.
CS(=O)(=O)c1ccc(C(=O)C2C(=O)CCCC2=O)c([N+](=O)[O-])c1 [Mesotrione, 2-(4-mesyl-2-nitrobenzoyl)cyclohexane-1,3-dione] showed an inhibition at 50 g/ha [3] of 0%, an inhibition at 25 g/ha ([4]; 25 g/ha, soil treatment, 28th day after treatment) of 25% and an inhibition at 50 g/ha ([5]; 50 g/ha, soil treatment and foliar treatment, 31st day after treatment) of 91%. The inhibition at 120 g/ha ([5]; 120 g/ha, soil treatment and foliar treatment, 31st day after treatment) was 93% and the inhibition at 75 g/ha ([6]; 75 g/ha, soil treatment and foliar treatment, 29th day after treatment) was 89%.
With CS(=O)(=O)c1ccc(C(=O)C2C(=O)CCCC2=O)c(Cl)c1 [Sulcotrione, 2-(2-chloro-4-mesylbenzoyl)cyclohexane-1,3-dione] the inhibition at 300 g/ha [7] was 5%, the inhibition at 1000 g/ha [8] was 15% and the inhibition at 50 g/ha [9] was 10%. The inhibition at 50 g/ha [10] was 20%, the inhibition at 2000 g/ha [11] was 85% and the inhibition at 100 g/ha [5] was 88%. It also gave an inhibition at 300 g/ha [5] of 90% and an inhibition at 200 g/ha [6] of 88%.
Cc1c(C(=O)c2cnn(C)c2O)ccc(S(C)(=O)=O)c1C1=NOCC1 [Topramezone, [3-(4,5-dihydro-1,2-oxazol-3-yl)-4-mesyl-o-tolyl](5-hydroxy-1-methylpyrazol-4-yl)methanone] gave an inhibition at 40 g/ha [12] of 30%, an inhibition at 100 g/ha [13] of 80% and an inhibition at 10 g/ha ([4]; soil) of 0%. For the same compound, the inhibition at 10 g/ha [5] was 8%, the inhibition at 60 g/ha [5] was 65% and the inhibition at 20 g/ha [6] was 50%.
